{"source": "patent US12239413B2", "about": "“2D material detector for activity monitoring of single living micro-organisms and nano-organisms” (SOUNDCELL HOLDING B.V., priority 2019, dated 2025)", "key": {"E. coli bacteria [1]": {"system": "E. coli bacteria", "experiment": "Motion of suspended silanized exfoliated 10 nm few layer graphene with adhered E. coli, antibiotic susceptibility", "assay_type": "cell-based", "description": "In the embodiment of FIG. 2 a red helium-neon laser 114 is directed through optical components 115 on the 2D material layer 102 which is placed in a controlled humidity chamber 116. The intensity of the reflected light from the chip 109 is altered by the motion of the micro-organism 105 in the liquid droplet 111 that in turn moves the suspended 2D material 102. This intensity is then measured by a photodiode 117 connected to an oscilloscope 118. In another example a liquid droplet 111 containing micro-organism E. coli bacteria 105 and nutrition Lysogeny broth solution 112 has been dispensed on the sample receiver 101 comprising an array of silanized natural crystal exfoliated 10 nm few layer thick graphene as the suspended material 102. FIGS. 4a, 4b and 4c show the time traces of the suspended layer in a timeframe of twelve minutes."}, "E. coli bacteria [2]": {"system": "E. coli bacteria", "experiment": "Motion of suspended single layer CVD graphene with E. coli droplet, antibiotic susceptibility", "assay_type": "cell-based", "conditions": "single layer chemical vapour deposited graphene, Lysogeny broth droplet", "description": "In the embodiment of FIG. 2 a red helium-neon laser 114 is directed through optical components 115 on the 2D material layer 102 which is placed in a controlled humidity chamber 116. The intensity of the reflected light from the chip 109 is altered by the motion of the micro-organism 105 in the liquid droplet 111 that in turn moves the suspended 2D material 102. This intensity is then measured by a photodiode 117 connected to an oscilloscope 118. In one example a liquid droplet 111 containing micro-organism E. coli bacteria 105 and nutrition Lysogeny broth solution 112 has been dispensed on the sample receiver 101 comprising an array of single layer chemical vapour deposited graphene as the inert suspended layer 102. The motion is read out using the measurement system described in FIG. 2. The motion of the suspended layer is traced in a timeframe of a few seconds in the presence and absence of chemicals 113 and micro-organisms 105."}}}
{"smiles": "O=C(N[C@H](CO)[C@H](O)c1ccc([N+](=O)[O-])cc1)C(Cl)Cl", "note": "[Chloramphenicol]", "values": [{"measurement": "change in average amplitude of the amplitude spectrum of the time traces after adding antibiotic", "setting": "E. coli bacteria [1]; FIGS. 5a-b (FIG. 4a vs FIG. 4c)", "value": "tenfold decrease"}, {"measurement": "fluctuations of the motion time trace (bacterial metabolic activity) after addition of antibiotic", "setting": "E. coli bacteria [1]; adhered bacteria, timeframe of twelve minutes, FIGS. 4b, 4c", "value": "No fluctuations are observed"}, {"measurement": "change of variance of the time traces after adding antibiotic", "setting": "E. coli bacteria [1]; timeframe of twelve minutes, FIG. 4d", "value": "drops about hundred times"}, {"measurement": "change of variance of the time traces after adding antibiotic", "setting": "E. coli bacteria [2]; FIG. 3d", "value": "drops about three times"}, {"measurement": "fluctuations of the motion time trace (bacterial metabolic activity) after addition of antibiotic", "setting": "E. coli bacteria [2]; timeframe of a few seconds, FIG. 3c", "value": "No fluctuations are observed"}]}
